Like-named read-outs stand apart in the source and are kept apart here.
Assays:
[1] = tested on: EGFR phosphorylation in Ba/F3-EGFR^L858R/T790M/C797S engineered cells; assay: Cell phosphorylation inhibition effect (pEGFR ELISA); assay type: cell-based, human; details: for IC50: Mus musculus, Ba/F3 EGFR-L858R, EGF stimulated, ELISA pY1068, read-out: Cellular pEGFR Inhibition IC50 (nM) Ba/F3-EGFR^L858R/T790M/C797S; for inhibitory effect on EGFR phosphorylation (in words): Ba/F3-EGFR^L858R/T790M/C797S engineered cells
Experimental: Cell line: BaF3 cells with stable overexpression of EGFR^T790M/C797S/L858R mutant genes, named BaF3-EGFR^T790M/C797S/L858R cells.
(§1) a) The medium was preheated in a 37° C. water bath.
(§2) b) The cryopreservation tube was taken from the liquid nitrogen tank, quickly placed in a 37° C. water bath, and melted completely within 1 minute.
(§3) c) The cell suspension was transferred to a 15 mL centrifuge tube containing a 10 mL medium and centrifuged at 1000 rpm for 4 minutes.
(§4) d) The supernatant was discarded, the cells were resuspended in a 1 mL medium and transferred to a […] culture dish containing a 10 mL medium, 20% serum and 50 ng/mL EGF were administered to the first-generation medium, and culture was conducted in a 37° C. and 5% CO2 incubator.
(§5) b) The cells in the culture dish were blown evenly with a 5 mL pipette, and 500 μL of the cells were pipetted out to be inoculated into a new […] culture dish and cultured in a 37° C. and 5% CO2 incubator.
(§6) a) The compound to be tested (10 mM stock solution) was diluted with 100% DMSO to 1 mM, and diluted with a culture solution in a 24-well plate to prepare of a working solution of 2 μM concentration.
(§7) b) The 2 μM working solution was diluted with a triple dilution method to obtain working solutions with approximate concentrations of 2 μM, 600 nM, 200 nM, 60 nM, and 20 nM.
a) The cells at the logarithmic growth phase were centrifuged at 1000 rpm for 4 minutes, resuspended with a medium (containing 10% serum), and counted.
b) The cells were inoculated into a 24-well plate with a cell density of 2 million cells/well, and placed in a 37° C. and 5% CO2 incubator for stabilization overnight.
a) The prepared compound was added to a 96-well plate, with 100 μL per well. The final concentrations were 1 μM, 300 nM, 100 nM, 30 nM, 10 nM, and 0 nM, and the final concentration of DMSO was 0.2%. A medium and 0.2% DMSO served as a blank control.
b) 100 ng/mL EGF was added at 1 hour and 45 minutes of administration. After 15 minutes of EGF treatment, the cells were collected and centrifuged to obtain the supernatant.
(5) Detection of Intracellular pEGFR Content
The content of EGFR and pEGFR in the supernatant was determined using an ELISA kit (Abcam, ab126439-EGFR (pY1068)+total EGFR Human ELISA).
(§8) The data was analyzed using GraphPad Prism 8.0 software to obtain a fitted curve of activity of the compounds. The IC50 of the compounds was fitted from nonlinear regression equation.

[2] = tested on: BaF3-EGFR^del19/T790M/C797S cells; assay: BaF3 cell proliferation inhibition experiment (CCK-8); assay type: cell-based; details: Ba/F3 EGFR-Del19/T790M/C797S, read-out: BaF3-EGFR^del19 /T790M/C797S (IC50 nM)
Experimental: (§9) A. Cell line: BaF3 cells with stable overexpression of wild-type genes are named BaF3-EGFR^WT, and BaF3 cells with stable overexpression of EGFR^L858R/T790M/C797S EGFR^del19/T790M/C797S EGFR^L858R/C797S and EGFR^del19/C797S mutant genes are named BaF3-EGFR^L858R/T790M/C797S BaF3-EGFR^del19/T790M/C797S BaF3-EGFR^L858R/C797S and BaF3-EGFR^del19/C797S cells, respectively. Mediums:
as §1, §2, §3, §4, §5, §6, §7
(§10) a) The cells at the logarithmic growth phase were centrifuged at 1000 rpm for 4 minutes, resuspended with a medium (containing 10% serum and 50 ng/mL EGF), and counted.
(§11) b) The cells were inoculated into a 96-well plate with a cell density of 4000 cells/well, and placed in a 37° C. and 5% CO2 incubator for culture for 12 hours.
(§12) a) The prepared compound was added to a 96-well plate, with 100 μL per well. The final concentrations were 1 μM, 300 nM, 100 nM, 30 nM, 10 nM, and 0 nM, and the final concentration of DMSO was 0.2%. A medium served as a blank control.
(§13) b) The cells were placed in 37° C. and 5% CO2 incubator for culture for 72 hours.
(§14) (5) Cell Viability Testing
(§15) a) The 96-well cell culture plate was taken out, and 20 μL of a CCK-8 reagent (Cell Counting Kit-8, Topscience, Catalog No. C0005) was added in the dark.
(§16) b) Mixing well was conducted on a horizontal shaking table at a room temperature at 100 rpm for 5 minutes.
(§17) c) The culture plate was placed in a 37° C. constant-temperature incubator for incubation.
as §8

BaF3-EGFR^WT cells = assay: as above; assay type: cell-based; details: Mus musculus, read-out: BaF3-EGFR^WT (IC50 nM)
Experimental: as §9, §1, §2, §3, §4, §5, §6, §7, §10, §11, §12, §13, §14, §15, §16, §17, §8

[3] = Detection of oral plasma exposure in rats; assay type: in vivo; details: rat, SD rats, p.o. 10 mg/kg
Experimental: Detection of oral plasma exposure in rats: The compounds of the present invention have good oral in-vivo exposure in rats
After a single dose of 10 mg/kg oral administration of the compound to be tested in SD rats, blood samples were collected at different time points.
Standard curve and quality control sample preparation processing: The mixed reserve solution of the compound to be tested was taken and diluted with 50% methanol water into standard working solutions containing respective compounds with concentrations of 20, 40, 100, 200, 400, 1000, 2000, 4000, 10000, and 20000 ng/mL, as well as 60, 600, and 16000 ng/mL quality control working solutions. […] of a blank matrix was taken. […] of the standard curve working solutions and the quality control working solutions were added to prepare standard curves containing respective compounds with concentrations of 1.00, 2.00, 5.00, 10.00, 20.00, 50.00, 100.00, 200.00, 500.00, and 1000.00 ng/mL, as well as quality control samples with concentrations of 3.00, 30.00, and 800.00 ng/mL, respectively. 400 μL of acetonitrile (containing internal standard Verpmil of 2 ng/mL) was added. After vortex oscillation at 700 rcf for 10 minutes, centrifugation was conducted at 3300 rcf at 4° C. for 10 minutes. The supernatant was taken for LC-MS/MS analysis.
Unknown sample preparation processing: 50 μL of the sample to be tested was taken. 400 μL of acetonitrile (containing internal standard Verpmil of 2 ng/mL) was added. After vortex oscillation at 700 rcf for 10 minutes, centrifugation was conducted at 3300 rcf and 4° C. for 10 minutes. The supernatant was taken for LC-MS/MS analysis.

## CCc1cc(Nc2ncc(Cl)c(Nc3ccc(C)c(C)c3P(C)(C)=O)n2)c(OC)cc1N1CCC(N2CCN(C)CC2)CC1 [Comparative Compound A, reference compound]
[1]
  IC50: 405 nM
[2]; cell proliferation, 72 hours
  IC50: 66.3 nM
BaF3-EGFR^WT cells; BaF3, cell proliferation, 72 hours
  IC50: 1570 nM

## CCc1cc(Nc2ncc(Cl)c(Nc3ccc(C)c(C)c3P(C)(C)=O)n2)c(OC)cc1N1CCC2(CC1)CC(N(C)C)C2 [Compound 6, (6-((5-chloro-2-((4-(2-(dimethylamino)-7-azaspiro[3.5]nonan-7-yl)-5-ethyl-2-methoxyphenyl)amino)pyrimidin-4-yl)amino)-2,3-dimethylphenyl)dimethylphosphine oxide]
[3]
  AUC(0-t): 13800 ng·h/mL
  Cmax: 866 ng/mL
  Tmax: 8 h
  half-life: 9.72 h
[3]; read-out: AUCINF—obs
  AUC(0-inf): 17700 ng·h/mL

## CCc1cc(Nc2ncc(Cl)c(Nc3ccc(C)c(C)c3P(C)(C)=O)n2)c(OC)cc1N1CC2(CCN(C)CC2)C1 [Compound 24, (6-((5-Chloro-2-((5-ethyl-2-methoxy-4-(7-methyl-2,7-diazaspiro[3.5]non-2-yl)phenyl)amino)pyrimidin-4-yl)amino)-2,3-dimethylphenyl)dimethylphosphine oxide]
[3]
  AUC(0-t): 7870 ng·h/mL
  Cmax: 505 ng/mL
  Tmax: 9 h
  half-life: 9.48 h
[1]
  inhibitory effect on EGFR phosphorylation (in words): good inhibitory effect
  IC50: 150 nM
[2]; 72 h
  IC50: 128 nM
BaF3-EGFR^WT cells; BaF3, 72 h
  IC50: 5770 nM

## CCc1cc(Nc2ncc(Cl)c(Nc3ccc(C)c(C)c3P(C)(C)=O)n2)c(OC)cc1N1CCC(N2C[C@H]3CC[C@@H](C2)N3C)CC1 [Compound 51, (6-((5-chloro-2-((5-ethyl-2-methoxy-4-(4-((1R,5S)-8-methyl-3,8-diazabicyclo[3.2.1]octan-3-yl)piperidin-1-yl)phenyl)amino)pyrimidin-4-yl)amino)-2,3-dimethylphenyl)dimethylphosphine oxide]
[3]
  AUC(0-t): 20700 ng·h/mL
  Cmax: 1220 ng/mL
  Tmax: 4 h
  half-life: 9.47 h
[1]
  inhibitory effect on EGFR phosphorylation (in words): good inhibitory effect
  IC50: 132 nM
[2]; 72 h
  IC50: 29.9 nM
BaF3-EGFR^WT cells; BaF3, 72 h
  IC50: 1180 nM
